Data reported in patent publication US10961222B2, “Chemical compound of isocitrate dehydrogenase inhibitor, and application thereof” (NANJING SANHOME PHARMACEUTICAL CO., LTD., priority 2016, dated 2021).

Assays:
[1] = biological target: T1, IDH2-R140Q mutant enzyme (Homo sapiens, UniProt P48735, R140Q); assay: Inhibitory activity of compounds on IDH2-R140Q enzyme in vitro (diaphorase/resazurin fluorescence); assay type: biochemical; settings: IDH2-R140Q, pre-incubated 16 h with enzyme and NADPH, reaction 1 h with α-ketoglutarate; read-out: R140Q IC50
T1 construct: purchased BPS 71100-1
T1 sequence (P48735 40-452 R140Q): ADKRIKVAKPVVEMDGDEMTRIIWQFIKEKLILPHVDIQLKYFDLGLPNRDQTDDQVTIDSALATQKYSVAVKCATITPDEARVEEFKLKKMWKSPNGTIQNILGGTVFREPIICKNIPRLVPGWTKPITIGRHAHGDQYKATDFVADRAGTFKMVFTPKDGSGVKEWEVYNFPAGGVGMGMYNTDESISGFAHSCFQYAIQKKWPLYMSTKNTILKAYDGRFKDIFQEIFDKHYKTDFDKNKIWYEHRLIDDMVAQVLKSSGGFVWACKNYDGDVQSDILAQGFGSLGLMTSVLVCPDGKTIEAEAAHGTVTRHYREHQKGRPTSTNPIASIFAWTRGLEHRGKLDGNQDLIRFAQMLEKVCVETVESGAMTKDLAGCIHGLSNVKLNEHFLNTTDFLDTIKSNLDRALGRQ
Method: Instrument: SpectraMax M3 Multi-Mode Microplate Reader, purchased from Molecular Devices.
In a 96-well plate, 40 μL of reaction buffer containing 2× enzyme (IDH2-WT or IDH2-R140Q) and cofactor (NADP or NADPH) was added to each well of the compound group and the DMSO control group, and 40 μL of reaction buffer containing 2× cofactor (NADP or NADPH) was added to each well of the enzyme-free control group.
20 μL of reaction buffer containing 4× compound to be tested was added to each well of the compound group. The compound was pre-formulated into 200× mother liquor with 100% DMSO; in the final reaction system, the concentration of DMSO was 0.5%. 20 μL of reaction buffer containing DMSO was added to each well of the DMSO control group; in the final reaction system, the concentration of DMSO was 0.5%.
The compound was mixed well with the enzyme and cofactor, and pre-incubated at room temperature for 16 h;
20 μL of reaction buffer containing 4× reaction substrate was added to each well. After mixed uniformly, the mixture was reacted at room temperature for 1 h.
3× termination and detection solution (it was prepared with reaction buffer, the final concentration of Diaphorase was 0.015 mg/mL, and the final concentration of Resazurin was 0.03 mM) was prepared. 40 μL of 3× termination and detection solution was added to each well of the enzyme reaction system. After mixed uniformly, the mixture was incubated at room temperature for 10 min;
Fluorescence values of two wells were obtained and averaged and the activity rate (Activity %) was calculated. The calculation formula: Activity %=(Measured data−Subtract background)/(DMSO Control−Subtract background)×100, wherein “Measured data” is fluorescence value of the compound in the pre-incubated wells, “Subtract background” is the fluorescence value of the enzyme-free control wells, and “DMSO Control” is the fluorescence value in the DMSO pre-incubated wells. Data was processed by GraphPad Prism v5.0 software and fitted to obtain IC50.

[2] = tested on: U87-MG (IDH2-R140Q) subcutaneous xenograft tumor; assay: Subcutaneous xenograft tumor caused by U87-MG (IDH2-R140Q) mutant cells in vivo: intratumor 2-HG; design: species or system BALB/c nude mice; settings: for Intratumor 2-HG(%) after 10 days of administration: intragastric, mean, relative to U87-MG (IDH2-R140Q) control group; for ability of lowering 2-HG level compared with positive compound AG-221: U87-MG (IDH2-R140Q) subcutaneous xenograft model
Description: 1.2 Animals: BALB/c nude mice, 6-7 weeks old, female, 18-22 g, purchased from Nanjing Jinlaichang Company.
U87-MG (IDH2-R140Q) cells and U87-MG cells (wild type) were expanded, and cells in logarithmic growth phase were used for tumor inoculation in vivo. 16 mice were inoculated subcutaneously into the right lower back of the body at an amount of 2×10^6 cells/mouse (the volume ratio of cell suspension to Matrigel was 1:0.8).
The non-mutation control group was nude mice inoculated with U87-MG cells, and the test compound groups and vehicle control group were nude mice inoculated with U87-MG (IDH2-R140Q) cells.
Each group was intragastrically administered with a corresponding concentration of the compound solution, the administration volume was 100 μL/10 g body weight, and the control group was administered the same volume of blank vehicle.
After 10 days of administration, the mice were sacrificed. The tumors were exfoliated, homogenized, and the 2-HG content in the tumor was examined.
The 2-HG concentration in the homogenate of each animal tumor in each group was determined by LC-MS/MS. The percentage (2-HG %) was calculated; the calculation formula is as follows 2-HG %=(2-HG concentration of administration group tumor−2-HG concentration of U87-MG control group tumor)/(2-HG concentration of U87−MG(IDH2-R140Q) control group tumor−2-HG concentration of U87-MG control group tumor)×100%.

[3] = biological target: T2, U87-MG cell line of overexpressed mutant IDH2 (R140Q) (Homo sapiens, UniProt P48735, R140Q); assay: Cell activity in vitro: 2-HG in culture supernatant of U87-MG (IDH2-R140Q) cells by LC-MS/MS; assay type: cell-based; settings: U87-MG (IDH2-R140Q) cells, 72 hours, 2-HG in supernatant; read-out: IC50 (2-HG remaining compared to untreated)
T2 construct: expressed in transfected cells
T2 sequence (P48735 40-452 R140Q): T1 sequence (P48735 40-452 R140Q)
Method: 1.2 Cells: human glioblastoma cell line U87-MG, purchased from the American Type Culture Collection (ATCC);
Cell recovery: U87-MG (IDH2-R140Q) cells and U87-MG cells were put into a 37° C. water bath, then transferred to 15 mL of pre-warmed medium, centrifuged at 1000 rpm for 5 minutes, and the medium was discarded. The cells were resuspended in 15 mL of fresh medium, transferred to a T75 flask and cultured in a 37° C. incubator with 5% CO2. After 24 hours, the medium was changed to fresh medium.
Cell passage: The above-mentioned recovered cells were transferred to a 50 mL sterile centrifuge tube, centrifuged at 1000 rpm for 5 minutes, and the medium was discarded. The cells were resuspended evenly and counted. The cell density was adjusted appropriately in a 15 mL fresh medium, and then added to T75 culture flask. The culture flask was incubated in an incubator with 5% CO2 at 37° C.
After cells grown to a relatively high density in the culture dish, the cells were trypsinized, resuspended in medium (MEM+10% FBS), and counted. After adjusting the cell concentration, the resuspended cells were seeded in a 96-well plate at 5×10^3 cells per well. After inoculation, the cells were cultured for 24 hours until the cells adhered. The medium were sucked out, and the medium containing gradient concentration of compound was added, 100 μL per well. The cells were further cultured for 72 hours. The s 20 μL of upernatant was taken and put into a 2 mL 96-well sample-processing plate. 480 μL of dilution solution was added and shaken for mixing, and then centrifuged at 4500 rpm for 5 minutes. 200 μL of supernatant was transferred for LC-MS/MS injection analysis.
Column: Shim-pack XR-ODS 30L*2.0; mobile phase: acetonitrile-0.2% ammonia, 5 mM ammonium acetate aqueous solution; column temperature: 30° C.; flow rate: 0.4 mL/min; gradient elution conditions are as follows: […]
Atmospheric […] chemical ionization (APCI) was used. Source parameters was set as follows: IonSpray Voltage/IS-4500V; auxiliary gas 1 (Ion Source Gas 1/GS 1, N2), 55Arb; auxiliary gas 2 (Ion Source Gas 2, N2), 55Arb; auxiliary gas heating temperature (Temperature/TEM), 500° C.; curtain gas/CUR, 25Arb; collision gas/CAD, N2, 8 Pa.
Multi-ion reaction monitoring (MRM) in negative ion mode (Negative) was used. […] The internal standard (IS) MRM parameters: parent ion (Q 1 Mass), 178.0 Da; daughter ion (Q3 Mass), 149.0 Da; Decluster Potential (DP), −51V; collision voltage (Collision Energy/CE), −17 eV
By determining the 2-HG content in the cell culture supernatant of each well using LC-MS/MS, the mutant enzyme activity (2-HG remaining compared to untreated %) was calculated. The calculation formula: 2-HG remaining compared to untreated %=(Measured 2-HG level—U87-MG control 2-HG level)/(Untreated 2-HG level—U87-MG control 2-HG level)×100. […] Data were processed by GraphPad Prism v5.0 software and fitted to obtain IC50.

[4] = tested on: human acute myeloid leukemia AM7577 cells; assay: Human acute myeloid leukemia NOD/SCID animal model: survival; assay type: in vivo, NOD/SCID mice; settings: gavage once a day for 14 days, 14 days after administration
Description: 1.1 Compounds to be tested: the compounds of the present disclosure prepared in the above examples, each of which was formulated into a solution in corresponding concentrations by using a vehicle (2% absolute ethanol:10% Solutol™: 88% physiological saline (v/v/v)).
1.2 Cells: human acute myeloid leukemia AM7577 cells, provided by Sino-American Crown Biotechnology (Beijing) Co., Ltd
1.4 Animals: NOD/SCID mice, 3-4 weeks old, female, purchased from Beijing Huakangkang Biotechnology Co., Ltd
Each mouse was inoculated through the tail vein at an amount of 2×10^6 cells resuspended in 100 uL of PBS.
Orbital blood samples of animals were collected weekly, labeled with human CD45, and the percentage of positive cells was detected. The animals were grouped when the percentage of peripheral blood CD45+ cells reached 5%. The proportion of peripheral blood CD45+ cells reached 5% on the 40th day after inoculation. After grouping, drugs were administered by gastric gavageonce once a day for 14 days.
The mortality rate of the animals after administration and the survival period of the surviving animals were observed.

Row | SMILES | IC50 [1] [nM] | Intratumor 2-HG(%) after 10 days of administration ([2]; 6.25 mg/kg) [%] | ability of lowering 2-HG level compared with positive compound AG-221 [2] | IC50 [3] [nM] | Intratumor 2-HG(%) after 10 days of administration ([2]; 25 mg/kg) [%] | Numbers of surviving animals ([4]; 15 mg/kg, 8 animals per group) | Numbers of surviving animals ([4]; 45 mg/kg, AG-221 group 4 animals, Example 22B group 8) | Intratumor 2-HG(%) after 10 days of administration ([2]; 12.5 mg/kg) [%]
1 | FC(F)(F)c1cc(Nc2nc(OCC(F)(F)C(F)(F)F)nc(-c3cccc(C(F)(F)F)n3)n2)ccn1 [Example 45, 4-(2,2,3,3,3-pentafluoropropoxy)-6-(6-(trifluoromethyl)pyridin-2-yl)-N-(2-(trifluoromethyl)pyridin-4-yl)-1,3,5-triazin-2-amine] | 6.3 | 17 | substantially superior | 10.2 | – | – | – | –
2 | N#C[C@H]1CCN(c2nc(Nc3ccnc(C(F)(F)F)c3)nc(-c3cccc(C(F)(F)F)n3)n2)C1 [Example 51, 4-((S)-3-cyanopyrrolidin-1-yl)-6-(6-(trifluoromethyl)pyridin-2-yl)-N-(2-(trifluoromethyl)pyridin-4-yl)-1,3,5-triazin-2-amine] | 18 | 38 | substantially superior | – | – | – | – | –
3 | FC1(F)CCN(c2nc(Nc3ccnc(C(F)(F)F)c3)nc(-c3cccc(C(F)(F)F)n3)n2)CC1 [Example 1, 4-(4,4-Difluoropiperidin-1-yl)-6-(6-(trifluoromethyl)pyridin-2-yl)-N-(2-(trifluoromethyl)pyridin-4-yl)-1,3,5-triazin-2-amine] | 11 | – | – | 15 | 22 | – | – | –
4 | O[C@H]1CN(c2nc(Nc3ccnc(C(F)(F)F)c3)nc(-c3cccc(C(F)(F)F)n3)n2)C[C@@H]1F [Example 23, 4-((3S,4S)-3-hydroxy-4-fluoropyrrolidin-1-yl)-6-(6-(trifluoromethyl)pyridin-2-yl)-N-(2-(trifluoromethyl)pyridin-4-yl)-1,3,5-triazin-2-amine] | 30 | 67 | – | – | – | – | – | –
5 | O[C@@]1(C(F)(F)F)CCN(c2nc(Nc3ccnc(C(F)(F)F)c3)nc(-c3cccc(C(F)(F)F)n3)n2)C1 [Example 22B, (S)-4-(3-trifluoromethyl-3-hydroxypyrrolidin-1-yl)-6-(6-(trifluoromethyl)pyridin-2-yl)-N-(2-(trifluoromethyl)pyridin-4-yl)-1,3,5-triazin-2-amine] | – | – | substantially superior | – | – | 7 | 7 | –
6 | FC1(F)CCCN(c2nc(Nc3ccnc(C(F)(F)F)c3)nc(-c3cccc(C(F)(F)F)n3)n2)C1 [Example 2, 4-(3,3-Difluoropiperidin-1-yl)-6-(6-(trifluoromethyl)pyridin-2-yl)-N-(2-(trifluoromethyl)pyridin-4-yl)-1,3,5-triazin-2-amine] | 23 | – | – | 27 | – | – | – | 14
7 | FC(F)(F)c1cc(Nc2nc(-c3cccc(C(F)(F)F)n3)nc(N3CC(F)(F)C(F)(F)C3)n2)ccn1 [Example 55, 4-(3,3,4,4-Tetrafluoropyrrolidin-1-yl)-6-(6-(trifluoromethyl)pyridin-2-yl)-N-(2-(trifluoromethyl)pyridin-4-yl)-1,3,5-triazin-2-amine] | 10.1 | 1 | substantially superior | 15 | – | – | – | –
8 | OC1CCCN(c2nc(Nc3ccnc(C(F)(F)F)c3)nc(-c3cccc(C(F)(F)F)n3)n2)C1 (stereo not shown) [Example 3, 4-(3-Hydroxypiperidin-1-yl)-6-(6-(trifluoromethyl)pyridin-2-yl)-N-(2-(trifluoromethyl)pyridin-4-yl)-1,3,5-triazin-2-amine] | 22 | – | – | 24 | – | – | – | 22
9 | OC1(C(F)(F)F)CN(c2nc(Nc3ccnc(C(F)(F)F)c3)nc(-c3cccc(C(F)(F)F)n3)n2)C1 [Example 34] | 14.1 | – | – | 17.1 | – | – | – | 24
